Assay results as given in ChEMBL document CHEMBL1201862, “PubChem BioAssay data set” (2004).
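Test compounds were applied to cells in 96-well plates for 48 hours at 5 doses. GI50: concentration for 50% inhibition of growth.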 Calls of active or inactive are those of the source. Rule as the data show it: active = GI50 up to about 1.1 µM and inactive = higher.

Legend:
Assay in all cases: NCI tumour cell line growth inhibition, 48 h
[1] = system: K562
[2] = system: SK-OV-3
[3] = system: SR
[4] = system: NCI-H23
[5] = system: LXFL 529
[6] = system: OVCAR-5
[7] = system: SF-295
[8] = system: HOP-92
[9] = system: SF-539
[10] = system: 786-0
[11] = system: SNB-19
[12] = system: UACC-62
[13] = system: HCT-116
[14] = system: SNB-78
[15] = system: DLD-1
[16] = system: EKVX
[17] = system: SK-MEL-2

Measured: GI50

CCN1CCN(c2ccc(Nc3ccnc4ccc5nn(C)nc5c34)cc2)CC1
inactive: [1] 5.12 µM | [2] 13.8 µM | [3] 4.22 µM | [4] 15.4 µM | [5] 10.7 µM | [6] 15.9 µM | [7] 12.4 µM | [8] 11.9 µM | [9] 13.8 µM | [10] 10.4 µM | [11] 18.7 µM | [12] 16.9 µM | [13] 5.58 µM | [14] 14.2 µM | [15] 11.6 µM

CCOC(=O)/C(C(=O)c1ccccc1)=C1\N[C@H](C(=O)OCC)CS1
inactive: [1] > 100 µM | [3] > 100 µM | [4] > 100 µM | [5] > 100 µM | [6] > 100 µM | [7] > 100 µM | [16] > 100 µM | [9] 10 µM | [10] 10 µM | [11] > 100 µM | [12] > 100 µM | [13] > 100 µM | [17] > 100 µM | [14] > 100 µM | [15] > 100 µM

CC1=C(C(=O)O)N2C(=O)[C@@H](NC(=O)C(c3ccccc3)N3CSC(=S)N(C(C)C)C3)C2SC1 (some centres not stated)
inactive: [1] 74.1 µM | [2] > 100 µM | [4] > 100 µM | [5] > 100 µM | [6] > 100 µM | [7] > 100 µM | [16] > 100 µM | [8] > 100 µM | [9] > 100 µM | [10] > 100 µM | [11] > 100 µM | [12] > 100 µM | [13] > 100 µM | [17] > 100 µM | [14] > 100 µM | [15] > 100 µM

COC1OC(OC)C2C(c3c(C)cc(C)cc3C)=NOC12 (configuration not stated)
inactive: [1] > 100 µM | [2] > 100 µM | [3] > 100 µM | [4] > 100 µM | [5] > 100 µM | [6] > 100 µM | [7] > 100 µM | [16] > 100 µM | [8] > 100 µM | [10] > 100 µM | [11] > 100 µM | [12] > 100 µM | [13] > 100 µM | [17] > 100 µM | [14] > 100 µM | [15] > 100 µM

CCOC(=O)NC(=O)c1cn(C2OC(COC(=O)CCCCCCCCC(=O)OCC3OC(n4cc(C(=O)NC(=O)OCC)c(=O)[nH]c4=O)C(O)C3O)C(O)C2O)c(=O)[nH]c1=O (configuration not stated)
inactive: [1] > 100 µM | [3] > 100 µM | [4] > 100 µM | [5] > 100 µM | [6] > 100 µM | [7] > 100 µM | [16] > 100 µM | [9] > 100 µM | [10] > 100 µM | [11] > 100 µM | [12] > 100 µM | [13] > 100 µM | [17] > 100 µM | [14] > 100 µM | [15] > 100 µM

COc1ccc(C(C#N)Cc2cc(OC)c(OC)c(OC)c2)cc1 (configuration not stated)
inactive: [1] 4.99 µM | [5] 41.8 µM | [6] 64.7 µM | [7] 10.3 µM | [16] 40.7 µM | [8] 21.7 µM | [9] 23.4 µM | [10] 44.1 µM | [11] 54.2 µM | [12] 27.8 µM | [13] 39.9 µM | [14] 39.8 µM | [15] 45.7 µM

CSc1ccc(Cc2cc(C(C)(C)C)cc(C(C)(C)C)c2O)cc1
inactive: [1] 12 µM | [2] 27 µM | [3] 8.75 µM | [4] 14.5 µM | [5] 13.9 µM | [6] 3.11 µM | [7] 17.6 µM | [16] 18.2 µM | [9] 17.3 µM | [10] 16.7 µM | [11] 16.3 µM | [12] 15.3 µM | [13] 10.8 µM | [17] 3.88 µM | [14] 14.9 µM | [15] 13.8 µM

N#Cc1c(-c2ccccc2)cc(-c2ccc(N)cc2)[nH]c1=O
inactive: [1] > 100 µM | [2] > 100 µM | [3] > 100 µM | [4] > 100 µM | [5] > 100 µM | [6] > 100 µM | [7] > 100 µM | [16] > 100 µM | [8] > 100 µM | [9] > 100 µM | [10] > 100 µM | [11] > 100 µM | [12] > 100 µM | [13] > 100 µM | [14] > 100 µM | [15] > 100 µM

N#CC(C(=O)/C(=N\Nc1nc(S)nn1N)C(C#N)c1ccc(Cl)cc1)c1ccc(Cl)cc1 (configuration not stated)
inactive: [2] > 100 µM | [4] > 100 µM | [5] > 100 µM | [6] > 100 µM | [7] > 100 µM | [16] > 100 µM | [8] > 100 µM | [9] > 100 µM | [10] > 100 µM | [11] > 100 µM | [12] > 100 µM | [13] > 100 µM | [17] > 100 µM | [14] > 100 µM | [15] > 100 µM

COC(=O)/C(=N\Nc1nnc(C)n1N)C(C#N)c1ccc(Cl)cc1 (configuration not stated)
inactive: [2] > 100 µM | [4] > 100 µM | [5] > 100 µM | [6] > 100 µM | [7] > 100 µM | [16] > 100 µM | [8] > 100 µM | [9] > 100 µM | [10] 34.7 µM | [11] > 100 µM | [12] > 100 µM | [13] > 100 µM | [17] > 100 µM | [14] > 100 µM | [15] > 100 µM

O=C(O)CCc1nn2c(nc1=O)sc1ccc3ccccc3c12
inactive: [1] > 100 µM | [2] > 100 µM | [3] > 100 µM | [4] > 100 µM | [5] > 100 µM | [7] > 100 µM | [16] > 100 µM | [8] > 100 µM | [9] > 100 µM | [10] > 100 µM | [11] > 100 µM | [12] > 100 µM | [13] > 100 µM | [14] > 100 µM | [15] > 100 µM

NC(=S)N/N=C(\C(=O)Nc1ccc(Cl)c(Cl)c1)C1=NN(c2ccccc2)C(c2cccc([N+](=O)[O-])c2)CC1=O (configuration not stated)
inactive: [1] 17.9 µM | [2] 30.5 µM | [3] 28.6 µM | [4] 21.5 µM | [5] 19.1 µM | [6] 38.5 µM | [7] 24.9 µM | [16] > 100 µM | [9] 23.8 µM | [10] 17.6 µM | [11] 35.6 µM | [12] 40.8 µM | [13] 4.29 µM | [17] > 100 µM | [14] 62.4 µM | [15] 19.4 µM

O=C(/C=C/c1ccc(-c2ccccc2)cc1)c1ccccc1
inactive: [1] 27.7 µM | [2] 23.7 µM | [3] 12.7 µM | [4] 20.1 µM | [5] 17.6 µM | [6] 17.3 µM | [7] 30.2 µM | [16] 23.3 µM | [8] 16.6 µM | [9] 17.9 µM | [10] 22.8 µM | [12] 20.8 µM | [13] 14.5 µM | [17] 12.7 µM | [14] 29 µM | [15] 26.3 µM

CC(C)(C)C1=Cc2cc3cc(C(C)(C)C)[nH]c(=O)c3cc2S(=O)(=O)N1
inactive: [1] 45.4 µM | [2] 31.2 µM | [3] 23.7 µM | [4] 29.9 µM | [5] 25.2 µM | [6] 33.7 µM | [7] 28.5 µM | [16] 17.3 µM | [8] 16.7 µM | [10] 26.2 µM | [11] 36.4 µM | [12] 18.4 µM | [13] 20.5 µM | [17] 18.7 µM | [14] 42.1 µM | [15] 31.7 µM

CC1CC(c2ccc(Cl)cc2)=Nc2ccccc2S1 (configuration not stated)
inactive: [1] > 100 µM | [2] > 100 µM | [3] > 100 µM | [4] > 100 µM | [5] > 100 µM | [6] > 100 µM | [7] > 100 µM | [16] > 100 µM | [9] > 100 µM | [10] > 100 µM | [11] > 100 µM | [12] > 100 µM | [13] > 100 µM | [17] > 100 µM | [14] > 100 µM | [15] > 100 µM

CCOC(=O)CCC(NC(=O)c1ccc(NC(OC)c2nc3cc(C(F)(F)F)ccc3nc2-c2ccccc2)cc1)C(=O)OCC (configuration not stated)
inactive: [1] 2.89 µM | [2] 18.1 µM | [4] 16 µM | [5] 7.6 µM | [6] 17.6 µM | [7] 16.2 µM | [16] 18 µM | [8] 16 µM | [9] 13.2 µM | [10] 12.7 µM | [11] 14.4 µM | [12] 16.9 µM | [13] 2.92 µM | [17] 17.3 µM | [14] 19.1 µM | [15] 9.4 µM

O=C1NC(=O)C2C(=O)NC(=O)C1C2(c1ccccc1)c1cc[nH]c1 (configuration not stated)
inactive: [1] > 100 µM | [2] > 100 µM | [4] > 100 µM | [5] > 100 µM | [6] > 100 µM | [7] > 100 µM | [16] > 100 µM | [8] > 100 µM | [9] > 100 µM | [10] > 100 µM | [11] > 100 µM | [12] > 100 µM | [17] > 100 µM | [14] > 100 µM | [15] > 100 µM
